Tests used:
[1] = siRNA encapsulation in lipid nanoparticles (SYBR Gold); assay type: physicochemical; details: Table 2; FVII siRNA in LNP with the cationic lipid
Experimental: The lipid nanoparticles (LNPs) were formed by mixing equal volumes of lipids dissolved in alcohol with siRNA dissolved in a citrate buffer by an impinging jet process. The lipid solution contains a cationic lipid compound of the invention, a helper lipid (cholesterol), an optional neutral lipid (DSPC) and a PEG (PEG) lipid at a concentration of 8-16 mg/mL with a target of 12 mg/mL in an alcohol. The siRNA to total lipid ratio is approximately 0.05 (wt/wt). Where a LNP formulation contains four lipid components, the molar ratios of the lipids ranges from 20 to 70 mole percent for the cationic lipid with a target of 40-60, the mole percent of helper lipid ranges from 20 to 70 with a target of 30 to 50, the mole percent of neutral lipid ranges from 0-30, the mole percent of PEG lipid has a range from 1 to 6 with a target of 2 to 5. The concentration of siRNA solution ranges from 0.7 to 1.0 mg/mL with a target of 0.8 to 0.9 mg/mL in a sodium citrate: sodium chloride buffer pH 4-6, with a target of 4.5-5.5. The LNPs are formed by mixing equal volumes of lipid solution in ethanol with siRNA dissolved in a citrate buffer by an impinging jet process through a mixing device with ID ranging from 0.25 to 2.0 mm at a flow rate from 10 to 640 mL/min. The mixed LNP solution is held at room temperature for 0-24 hrs prior to a dilution step. The solution is then concentrated and diafiltered with suitable buffer by ultrafiltration or dialysis process using membranes with a MW cutoff from 30 to 500 KD. The final product is sterile filtered and stored at 4° C.
The lipid nanoparticles (LNPs) were formed by mixing equal volumes of lipids dissolved in alcohol with siRNA dissolved in a citrate buffer by an impinging jet process. The lipid solution contains a cationic lipid compound of the invention, a helper lipid (cholesterol), an optional neutral lipid (DSPC) and a stealth lipid (5010, S024, S027, or S031) at a concentration of 8-16 mg/mL with a target of 12 mg/mL in an alcohol. The siRNA to total lipid ratio is approximately 0.05 (wt/wt). Where a LNP formulation contains four lipid components, the molar ratios of the lipids ranges from 20 to 70 mole percent for the cationic lipid with a target of 40-60, the mole percent of helper lipid ranges from 20 to 70 with a target of 30 to 50, the mole percent of neutral lipid ranges from 0-30, the mole percent of PEG lipid has a range from 1 to 6 with a target of 2 to 5. The concentration of siRNA solution ranges from 0.7 to 1.0 mg/mL with a target of 0.8 to 0.9 mg/mL in a sodium citrate: sodium chloride buffer pH 4-6, with a target of 4.5-5.5. The LNPs are formed by mixing equal volumes of lipid solution in ethanol with siRNA dissolved in a citrate buffer by an impinging jet process through a mixing device with ID ranging from 0.25 to 2.0 mm at a flow rate from 10 to 640 mL/min. The mixed LNP solution is held at room temperature for 0-24 hrs prior to a dilution step. The solution is then concentrated and diafiltered with suitable buffer by ultrafiltration process using membranes with a MW cutoff from 30 to 500 KD. The final product is sterile filtered and stored at 4° C.
SYBR Gold flourescence reagent is used for the determination of siRNA encapsulation in the DLP's. DLP's with and without triton x-100 are used to determine the free siRNA and total siRNA amounts. DLP's samples with and without triton X-100 were excited at 485 nm and flourescence emission is measured at 530 nm. Encapsulation efficiency is calculated based on the following formula: Encapsulation efficiency:[([…])/(total siRNA concentration)]×100% Encapsulation Data

[2] = Percent encapsulation of mRNA in lipid nanoparticles (Quant-iT Ribogreen); assay type: physicochemical; details: Table 2; leptin mRNA in LNP with the cationic lipid
Experimental: All equipment and disposable supplies are certified free of RNase activity by the manufacturer or rendered RNase free by use of the RNaseZap reagent (LifeTechnologies). mRNA is encapsulated at a cationic lipid amine to mRNA phosphate (N:P) molar ratio of 4:1. Lipids (cationic lipid, DSPC, cholesterol and lipidated PEG or stealth lipid) are dissolved in ethanol. The molar ratios are 40:10:38:2, respectively. The mixture is sonicated briefly, then gently agitated for 5 minutes and then maintained at 37° C. until use. mRNA is exchanged into citrate buffer pH 5.8-6.0 by use of Amicon Ultra-15 centrifugal concentrators, and the final concentration is adjusted to 0.5 mg/ml and held at 37° C. until use. An equal volume of lipids in ethanol, mRNA in citrate buffer, and citrate buffer alone are drawn into disposable syringes. Tubing leading from syringes containing lipids and mRNA are attached to the T junction, and tubing leading from the syringe containing citrate buffer alone is paired with the tubing exiting the T-junction over a collection vessel containing a stir bar on an active stir plate. Syringes are placed in a syringe pump set to expel contents at a flow rate of 1 ml per minute.
The pump is activated, and the collected mRNA in lipid nanoparticles is transferred to SnakeSkin dialysis tubing (10,000 MWCO, Thermo Scientific). Material is dialyzed against RNAse- and pyrogen-free 1× phosphate buffered saline overnight at 4° C.
Percent encapsulation of mRNA in lipid nanoparticles is determined using the Quant-iT Ribogreen RNA Assay kit (Life Technologies). The LNP-mRNA suspension is assayed in buffer (mRNA outside the particle), and buffer plus Triton X-100 detergent (total mRNA). The difference calculated is the mRNA inside the particle. Prepare a 1000 ng/mL stock from the RNA provided in the kit and use this to generate a standard curve (0 ng/ml, 15.63-1000 ng/ml) in TE and TE+0.75% Triton X-100. Prepare LNP-mRNA samples in TE buffer and TE buffer +0.75% Triton X-100 with appropriate dilution so that reading is in the range of standard curve (400-2,000 fold). In a 384-well plate (Costar non-treated #3573) add 0.04 ml of standard (in duplicate) or sample (in triplicate) per well. Dilute Ribogreen reagent 240-fold in TE buffer and add 0.06 ml per well. Mix contents of wells and measure fluorescence (excitation=480 nm, emission=520 nm). Subtract background values (no RNA) from standard and test sample values and determine the concentrations of RNA in the samples using the standard curves. Determine the percent encapsulation of the sample by dividing the difference in concentrations between sample+triton and sample in buffer alone by the sample+triton concentration.

| Compound | % encapsulation siRNA FVII [1] | % encapsulation mRNA Leptin [2] |
| --- | --- | --- |
| CCCCCCCCCCCCC(CCOC(=O)CCC(OCC(CC)CCCC)OCC(CC)CCCC)OC(=O)OCCCN(CC)CC (stereo not shown) [Example 12, 3-(((3-(diethylamino)propoxy)carbonyl)oxy)pentadecyl 4,4-bis((2-ethylhexyl)oxy)butanoate] | 91.7% | – |
| CCCCC/C=C\C/C=C\CCCCCCCCC(CCOC(=O)CCCCCCCC(CCCCC)CCCCC)OC(=O)CCCN(C)C (stereo not shown) [Example 53, (12Z,15Z)-3-((4-(dimethylamino)butanoyl)oxy)henicosa-12,15-dien-1-yl 9-pentyltetradecanoate] | 85.6% | – |
| CCCCCCCCC(CCCCCCCC)CC(CCCCOC(=O)CCCCCCC)OC(=O)OCCCN(C)C (stereo not shown) [Example 71, 5-(((3-(dimethylamino)propoxy)carbonyl)oxy)-7-octylpentadecyl octanoate] | 86.7% | – |
| CCCCC/C=C\C/C=C\CCCCCCCCC(COCCOC(=O)CCCCCCC/C=C\C/C=C\CCCCC)OC(=O)CCN(C)C (stereo not shown) [Example 59, (9Z,12Z)-2-(((11Z,14Z)-2-((3-(dimethylamino)propanoyl)oxy)icosa-11,14-dien-1-yl)oxy)ethyl octadeca-9,12-dienoate] | 90.2% | – |
| CCCCC/C=C\C/C=C\CCCCCCCCC(CCOC(=O)CCCCCC(CCCCCC)CCCCCC)OC(=O)CCCN(C)C (stereo not shown) [Example 52, (12Z,15Z)-3-((4-(dimethylamino)butanoyl)oxy)henicosa-12,15-dien-1-yl 7-hexyltridecanoate] | 84.6% | – |
| CCCCC/C=C\C/C=C\CCCCCCCC(=O)OCCC(CCCCCCCCCCCC)OC(=O)OCCCN(C)C (stereo not shown) [Example 43, (9Z,12Z)-3-(((3-(dimethylamino)propoxy)carbonyl)oxy)pentadecyl octadeca-9,12-dienoate] | 86.8% | – |
| CCCCCCCC(=O)OCCCCCCCCCCC(CCOC(=O)CCCC(CCCCCCC)CCCCCCC)OC(=O)OCCCN(C)C (stereo not shown) [Example 63, 3-(((3-(dimethylamino)propoxy)carbonyl)oxy)-13-(octanoyloxy)tridecyl 5-heptyldodecanoate] | 85.6% | – |
| CCCCCCCCCCCCC(CCOC(=O)CC(CCCCCCCC)CCCCCCCC)OC(=O)OCCCN(C)C (stereo not shown) [Example 24, 3-(((3-(dimethylamino)propoxy)carbonyl)oxy)pentadecyl 3-octylundecanoate] | 86.8% | – |
| CCCCCC(CCCCC)CCCCCCCC(=O)OCCC(CCCCCCCCCCO)OC(=O)OCCCN(C)C (stereo not shown) [Example 65, 3-(((3-(dimethylamino)propoxy)carbonyl)oxy)-13-hydroxytridecyl 9-pentyltetradecanoate] | 39.5% | – |
| CCCCCCCCCCCCC(CCOC(=O)CCCCC(OCCCCCCCC)OCCCCCCCC)OC(=O)OCCCN1CCNCC1 (stereo not shown) [Example 108, 3-(((3-(piperazin-1-yl)propoxy)carbonyl)oxy)pentadecyl 6,6-bis(octyloxy)hexanoate] | – | 94.6% |
| CCCCCCCCCCCCC(CCOC(=O)CCC(OCCCCCCCC)OCCCCCCCC)OC(=O)OCCCN(C)C (stereo not shown) [Example 106, 3-(((3-(dimethylamino)propoxy)carbonyl)oxy)pentadecyl 4,4-bis(octyloxy)butanoate] | – | 96.3% |
| CCCCCCCCCCCCC(CCC(=O)OC(COC(=O)CCCCCCCCCCC)COC(=O)CCCCCCCCCCC)OC(=O)OCCCN(C)CC (stereo not shown) [Example 89, 2-((4-(((3-(ethyl(methyl)amino)propoxy)carbonyl)oxy)hexadecanoyl)oxy)propane-1,3-diyl didodecanoate] | – | 87.0% |
| CCCCCCCC/C=C\CCCCCCCC(=O)OCC(COC(=O)CCCCCCC/C=C\CCCCCCCC)OC(=O)CCC(CCCCCCCCCCCC)OC(=O)OCCCN(C)C (stereo not shown) [Example 83, (Z)-2-((4-(((3-(dimethylamino)propoxy)carbonyl)oxy)hexadecanoyl)oxy)propane-1,3-diyl dioleate] | – | 48.9% |

Other lines, results leading:

| % encapsulation siRNA FVII [1] | % encapsulation mRNA Leptin [2] | Compound |
| --- | --- | --- |
| – | 86.2% | CCCCCCCCOC(CCCCC(=O)OCCC(CCCOC(=O)CCCCCCC)OC(=O)OCCCN(CC)CC)OCCCCCCCC (stereo not shown) [Example 128, 6-((6,6-bis(octyloxy)hexanoyl)oxy)-4-(((3-(diethylamino)propoxy)carbonyl)oxy)hexyl octanoate] |
| – | 96.2% | CCCCCCCCCCCCC(CCCOC(=O)CCCCC(COC(=O)CCCCCCC)COC(=O)CCCCCCC)OC(=O)O[C@@H]1CCN(C)C1 (stereo partly drawn) [Example 135, 2-(5-((4-(((((R)-1-methylpyrrolidin-3-yl)oxy)carbonyl)oxy)hexadecyl)oxy)-5-oxopentyl)propane-1,3-diyl dioctanoate] |
| – | 94.9% | CCCCCCCCCCCCC(CCOC(=O)CCCCC(COC(=O)CCCCCCC)COC(=O)CCCCCCC)OC(=O)OCCCN1CCCCC1 (stereo not shown) [Example 141, 2-(5-oxo-5-((3-(((3-(piperidin-1-yl)propoxy)carbonyl)oxy)pentadecyl)oxy)pentyl)propane-1,3-diyl dioctanoate] |
| – | 95.7% | CCCCCCCCCCCCC(CCOC(=O)CCCCC(OCCCCCCCC)OCCCCCCCC)OC(=O)[C@H]1CCCN1 (stereo partly drawn) [Example 119, (2R)-1-((6,6-bis(octyloxy)hexanoyl)oxy)pentadecan-3-yl pyrrolidine-2-carboxylate] |
| – | 95.5% | CCCCCCCCCCCCC(CCCOC(=O)CCCCC(COC(=O)CCCCCCC)COC(=O)CCCCCCC)OC(=O)C1(C)CCN(C)C1 (stereo not shown) [Example 132, 2-(5-((4-((1,3-dimethylpyrrolidine-3-carbonyl)oxy)hexadecyl)oxy)-5-oxopentyl)propane-1,3-diyl dioctanoate] |
| – | 74.7% | CCCCCCCCCCCCC(CCOC(=O)CCCCC(OCCCCCCCC)OCCCCCCCC)OC(=O)OCC1CCN(C)CC1 (stereo not shown) [Example 111, 3-((((1-methylpiperidin-4-yl)methoxy)carbonyl)oxy)pentadecyl 6,6-bis(octyloxy)hexanoate] |

Source: US11013696B2, “Lipids and lipid compositions for the delivery of active agents” (Novartis AG, priority 2013, dated 2021)
